# Experimental data from patent US10532985B2, “Heterocycle and carbocycle derivatives having TRKA inhibitory activity” (Shionogi & Co., Ltd., priority 2014, dated 2020).
# Molecular target: T1, human TrkA (Homo sapiens, UniProt P04629)
# T1 construct: purchased Lifetechnologies PV3144
# Experiment: Test Example 2-2: Human TrkA Inhibition Assay
# Type: biochemical
# Conditions: class symbols, read-out: IC50_nM
# Experimental: Seven point five μL per well of human TrkA (PV3144, Lifetechnologies, final concentration: 1 nmol/L) suspended in the assay buffer (100 mmol/L 4-(2-hydroxyethyl)-1-piperazineethanesulfonic acid (HEPES), 10 mmol/L magnesium chloride, 0.003 vol % Brij-35, 0.004 vol % Tween20 and 1 mmol/L dithiothreitol (DTT)) was applied in a 384 well plate and the plate was pre-incubated for 15 min at room temperature with 0.4 μL of each compound (final concentration: […]) dissolved in DMSO. Then, fluorescent substrate (FL-peptide 27, 760424, PerkinElmer, final concentration: 1.5 μmol/L) and ATP (final concentration […]) dissolved in the assay buffer was added in each well. After the incubation of 120 min at 37° C., fifteen μL of termination buffer (100 mmol/L HEPES, 40 mmol/L ethylenediaminetetraacetic acid (EDTA), 10 mmol/L magnesium chloride, 0.003 vol % Brij-35, 0.004 vol % Tween20, 1 mmol/L DTT and 0.16 vol % Coating Reagent 3) was added in each well to stop the enzyme reaction. Fluorescent intensities (FI) of phosphorylated and non-phosphorylated fluorescent substrates were measured by LabChip EZReader II (Caliper LifeSciences, Inc.), and conversion ratio (CR) was calculated by the following formula-1. The CR in the well applied with DMSO alone was used as a negative control and the CR in the well without applying TrkA was used as a positive control. The inhibitory effect of each compound on TrkA phosphorylation was calculated by the following formula-2. CR (%)=(FI of phosphorylated substrate/(FI of phosphorylated substrate+FI of non-phosphorylated substrate))×100 (Formula-1) Phosphorylation inhibition (%)=(1−(CR with compound treatment−CR of positive control)/(CR of negative control−CR of positive control))×100 (Formula-2) Inhibitory effect on TrkA phosphorylation (%)=(1−(CR in compound treated well−CR in positive control)/(CR in negative control−CR in positive control))×100.
# The 50/o inhibitory concentration (IC50) was determined by the logistic regression using the inhibition data in 10 points at a range of 2 μmol/L to 0.1 nmol/L or 200 μmol/L to 10 nmol/L).
# T1 sequence (P04629 33-796): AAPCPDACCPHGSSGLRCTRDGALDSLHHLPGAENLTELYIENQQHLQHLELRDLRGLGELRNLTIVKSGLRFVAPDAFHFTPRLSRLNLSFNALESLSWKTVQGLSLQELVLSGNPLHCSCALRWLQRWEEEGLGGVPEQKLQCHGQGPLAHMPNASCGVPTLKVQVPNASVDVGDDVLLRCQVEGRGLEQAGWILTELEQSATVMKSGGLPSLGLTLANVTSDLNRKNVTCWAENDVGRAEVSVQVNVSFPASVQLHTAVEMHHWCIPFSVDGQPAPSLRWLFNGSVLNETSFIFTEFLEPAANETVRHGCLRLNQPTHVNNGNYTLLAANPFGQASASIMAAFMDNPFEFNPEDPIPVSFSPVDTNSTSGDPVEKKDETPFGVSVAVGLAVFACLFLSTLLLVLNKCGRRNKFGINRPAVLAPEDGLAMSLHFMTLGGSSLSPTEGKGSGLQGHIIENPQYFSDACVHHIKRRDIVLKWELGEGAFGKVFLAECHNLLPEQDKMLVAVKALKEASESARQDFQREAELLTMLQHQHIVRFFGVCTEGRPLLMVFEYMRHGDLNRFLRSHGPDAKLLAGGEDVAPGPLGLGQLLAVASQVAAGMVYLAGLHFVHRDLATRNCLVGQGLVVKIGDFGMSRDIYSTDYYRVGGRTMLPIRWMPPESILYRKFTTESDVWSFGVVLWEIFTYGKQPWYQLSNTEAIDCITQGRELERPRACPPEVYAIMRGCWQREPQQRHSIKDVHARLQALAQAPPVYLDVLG
row,Compound,IC50 [nM]
1,COCC[C@@H]1C[C@@H](NC(=O)Nc2c(C)c(-c3cnn(C)c3)nn2-c2ccccc2)[C@](O)(c2ccccc2)C1 [Compound I-273],> 1000
2,COCC[C@@H]1C[C@@H](NC(=O)Nc2c(C)c(C3=CCN(C(=O)OC)CC3)nn2-c2ccccc2)[C@H](c2ccccc2)C1 [Compound I-268],< 100
3,COCC[C@@H]1C[C@@H](NC(=O)Nc2c(C)c(OCC3CCN(C)CC3)nn2-c2ccccc2)[C@H](c2ccccc2)C1 [Compound I-272],< 100

# Same assay, conditions: human TrkA 1 nmol/L, 120 min at 37° C., read-out: TrkA inhibition IC50
row,Compound,IC50 [nM]
1,Cc1c(-c2cnn(C)c2)nn(-c2ccccc2)c1NC(=O)N[C@@H]1CN(CCOC2CC2)C[C@H]1c1ccnc(F)c1 (racemic) [Compound I-267],24
2,COCCN1C[C@@H](NC(=O)Nc2c(C)c(-c3cnn(C)c3)nn2-c2ccccc2)[C@H](C2=CCCCC2)C1 (racemic) [Compound I-218],270
3,COCCN1C[C@@H](NC(=O)Nc2c(C)c(-c3cnn(C)c3)nn2-c2ccccc2)[C@H](c2ccc3nonc3c2)C1 (racemic) [Compound I-209],10
4,COCC(CO)[C@@H]1C[C@@H](NC(=O)Nc2c(C)c(-c3cnn(C)c3)nn2-c2ccccc2)[C@H](c2ccccc2)C1 (stereo partly drawn) [Compound I-239],76
5,Cc1c(-c2cnn(C)c2)nn(-c2ccccc2)c1NC(=O)N[C@@H]1CN(CCOC2CC2)C[C@H]1c1ccc(F)c(F)c1 [Compound I-252],3.6
6,COCCC1C[C@@H](NC(=O)Nc2c3c(nn2-c2ccccc2)CCC3)[C@H](c2ccccc2)C1 (stereo partly drawn) [Compound I-184],47
7,COCC[C@@H]1C[C@@H](NC(=O)Nc2c(C)c(-c3cnc(C)nc3)nn2-c2ccccc2)[C@H](c2ccc(F)c(F)c2)N1 [Compound I-256],8.2
8,Cc1c(-c2cnn(C)c2)nn(-c2ccccc2)c1NC(=O)N[C@@H]1CN(Cc2ccc(Br)o2)C[C@H]1c1ccc(F)c(F)c1 [Compound I-190],1.3
9,COCC[C@@H]1C[C@@H](NC(=O)Nc2c(C)c(-c3cnc(C)nc3)nn2-c2ccccc2)[C@H](c2ccc(F)c(F)c2)C1 [Compound I-254],0.73

# Same assay, conditions: human TrkA inhibition, class symbols A/B/C, read-out: IC50_nM
row,Compound,IC50 [nM]
1,COCC[C@@H]1C[C@@H](NC(=O)Nc2c(C)c(-c3ccc(C(=O)O)cc3)nn2-c2ccccc2)[C@H](c2ccc(F)c(F)c2)N1C [Compound I-237],< 100
2,COCC[C@@H]1C[C@@H](NC(=O)Nc2c(C)c(-c3ccc(C(=O)O)cc3)nn2-c2ccccc2)[C@H](c2ccc(F)c(F)c2)N1 [Compound I-260],< 100
3,COCCC1C[C@H](NC(=O)Nc2c(C)c(-c3cnn(C)c3)nn2-c2ccccc2)[C@@H](c2ccccc2)C1 (stereo partly drawn) [Compound I-213],100 to 1000
4,COCCC1C[C@@H](NC(=O)Nc2cc(-c3ccccc3)nn2C)[C@H](c2ccccc2)N1 (stereo partly drawn) [Compound I-216],100 to 1000
5,CO[C@@H]1C[C@H](NC(=O)Nc2c(C)c(-c3cnn(C)c3)nn2-c2ccccc2)[C@@H](c2ccccc2)C1 (racemic) [Compound I-233],> 1000
6,COCCN1C[C@@H](NC(=O)Nc2c(C)c(-c3cnn(C)c3)nn2-c2ccccc2)[C@H](c2ccc(F)c(F)c2)C1 [Compound I-250],< 100
7,COCC[C@@H]1C[C@@H](NC(=O)Nc2c(C)c(C3=CCNCC3)nn2-c2ccccc2)[C@H](c2ccccc2)C1 [Compound I-266],< 100
8,COCCC1C[C@@H](NC(=O)Nc2c(C)c(-c3cnn(C)c3)nn2-c2ccccc2)[C@H](c2ccc(F)c(F)c2)N1CC(=O)OC (stereo partly drawn) [Compound I-198],> 1000
9,Cc1c(-c2cnn(C)c2)nn(-c2ccccc2)c1NC(=O)N[C@@H]1CN(CCOC(C)C)C[C@H]1c1ccc(F)c(F)c1 [Compound I-217],< 100
10,COCCC1C[C@@H](NC(=O)Nc2c(C)c(-c3cnn(C)c3)nn2-c2ccccc2)[C@H](c2ccc(O)cc2)C1 (stereo partly drawn) [Compound I-222],< 100
11,COCC[C@@H]1C[C@@H](NC(=O)Nc2c(C)c(-c3cnn(C)c3)nn2-c2ccccc2)[C@H](c2ccccc2)N1 [Compound I-242],100 to 1000
12,COCC[C@@H]1C[C@@H](NC(=O)Nc2c(C)c(-c3cnc(C)nc3)nn2-c2ccccc2)[C@H](c2ccccc2)C1 [Compound I-263],< 100
13,COCC[C@@H]1C[C@@H](NC(=O)Nc2c(C)c(-c3ccnc(C)c3)nn2-c2ccccc2)[C@H](c2ccc(F)c(F)c2)N1C [Compound I-235],< 100
14,COCC[C@@H]1C[C@@H](NC(=O)Nc2c(C)c(-c3cnn(C)c3)nn2-c2ccccc2)[C@H](c2ccc(F)c(F)c2)N1 [Compound I-208],< 100
15,COCC[C@@H]1C[C@@H](NC(=O)Nc2c(C)c(-c3ccc(C(=O)OC(C)(C)C)cc3)nn2-c2ccccc2)[C@H](c2ccc(F)c(F)c2)N1C [Compound I-236],< 100
16,COCCN1C[C@@H](NC(=O)Nc2c(C)c(-c3cnn(C)c3)nn2-c2ccccc2)[C@H](c2ccnc(OC)c2)C1 (racemic) [Compound I-228],100 to 1000
17,CCOc1nn(-c2ccccc2)c(NC(=O)N[C@@H]2CC(CCOC)C[C@H]2c2ccccc2)c1C (stereo partly drawn) [Compound I-212],< 100
18,COCC[C@@H]1C[C@@H](NC(=O)Nc2c(C)c(-c3ccc(OC)nc3)nn2-c2ccccc2)[C@H](c2ccc(F)c(F)c2)N1 [Compound I-257],< 100
19,COCCC1C[C@@H](NC(=O)Nc2c(C)c(-c3cnn(C)c3)nn2-c2ccccc2)[C@H](c2ccc(F)c(F)c2)N1CC#N (stereo partly drawn) [Compound I-179],100 to 1000
20,CCc1ccc(CN2C[C@@H](NC(=O)Nc3c(C)c(-c4cnn(C)c4)nn3-c3ccccc3)[C@H](c3ccc(F)c(F)c3)C2)o1 [Compound I-192],100 to 1000
21,COCCC1C[C@@H](NC(=O)Nc2cc(-c3ccc(C(=O)O)cc3)nn2C)[C@H](c2ccccc2)C1 (stereo partly drawn) [Compound I-199],> 1000
22,COCCC1C[C@@H](NC(=O)Nc2c(C)c(-c3cnn(C)c3)nn2-c2ccccc2)[C@H](c2ccc(F)c(F)c2)N1CCOC (stereo partly drawn) [Compound I-197],> 1000
23,COCCC1C[C@@H](NC(=O)Nc2c(C)c(-c3ccc(C(=O)OC(C)(C)C)cc3)nn2-c2ccccc2)[C@H](c2ccccc2)C1 (stereo partly drawn) [Compound I-206],< 100
24,COCC[C@@H]1C[C@@H](NC(=O)Nc2c(C)c(C3=CCNCC3)nn2-c2ccccc2)[C@H](c2ccc(F)c(F)c2)N1C [Compound I-258],< 100
25,CO[C@@H]1C[C@@H](NC(=O)Nc2c(C)c(-c3cnn(C)c3)nn2-c2ccccc2)[C@H](c2ccccc2)C1 (racemic) [Compound I-210],100 to 1000
26,COCCC1C[C@@H](NC(=O)Nc2c(C)c(-c3ccnc(C)c3)nn2-c2ccccc2)[C@H](c2ccccc2)C1 (stereo partly drawn) [Compound I-234],< 100
27,CNC(=O)c1ccc(-c2cc(NC(=O)N[C@@H]3CC(CCOC)C[C@H]3c3ccccc3)n(C)n2)cc1 (stereo partly drawn) [Compound I-200],> 1000
28,Cc1c(-c2cnn(C)c2)nn(-c2ccccc2)c1NC(=O)N[C@@H]1CN(Cc2csc(Br)n2)C[C@H]1c1ccc(F)c(F)c1 [Compound I-205],< 100

# Molecular target: T1, human TrkA
# Experiment: Test Example 2: Human TrkA Inhibition Assay
# Type: biochemical
# Conditions: Test Example 2; human TrkA 2.5 nmol/L, ATP 500 μmol/L, 90 min at room temperature; read-out: TrkA inhibitory activity IC50
# Summary of the method: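 Mobility-shift kinase assay: 90 min reaction at room temperature, stopped with EDTA buffer; phosphorylated and non-phosphorylated fluorescent substrate measured, conversion ratio calculated. Inhibition % normalised between DMSO-only wells and no-TrkA wells.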
row,Compound,IC50 [nM]
1,Cc1c(-c2cnn(C)c2)nn(-c2ccccc2)c1NC(=O)N[C@@H]1CC(=O)C[C@H]1c1ccccc1 (racemic) [Compound I-161],4200
2,Cc1c(-c2cnn(C)c2)nn(-c2ccccc2)c1NC(=O)N[C@@H]1CC(O)C[C@H]1c1ccccc1 (stereo partly drawn) [Compound I-168],7000

# Same assay, conditions: human TrkA inhibition, Test Example 2; class symbols A/B/C; read-out: IC50_nM
row,Compound,IC50 [nM]
1,COC1CCCCC1N1C[C@@H](NC(=O)Nc2c(C)c(-c3cnn(C)c3)nn2-c2ccccc2)[C@H](c2ccc(F)c(F)c2)C1 (stereo partly drawn) [Compound I-176],> 1000
2,COCCN1C[C@@H](NC(=O)Nc2c(C)c(-c3cnn(C)c3)nn2-c2ccccc2)[C@H](c2cccc(C(=O)O)c2)C1 (racemic) [Compound I-82],> 1000
3,Cc1c(-c2cnn(C)c2)nn(-c2ccccc2)c1NC(=O)N[C@@H]1CN(Cc2nccn2C)C[C@H]1c1ccc(F)c(F)c1 [Compound I-159],> 1000
4,COCCN1C[C@@H](NC(=O)Nc2c(C)c(-c3cnn(C)c3)nn2-c2ccccc2)[C@H](c2cccc(-c3cccc(C(=O)OC)c3)c2)C1 (racemic) [Compound I-57],100 to 1000
5,Cc1c(-c2cnn(C)c2)nn(-c2ccccc2)c1NC(=O)N[C@@H]1C[C@@H](C)N(C(=O)OC(C)(C)C)[C@H]1c1ccc(F)c(F)c1 (racemic) [Compound I-76],> 1000
6,COCCN1C[C@@H](NC(=O)Nc2c(C)c(-c3cnn(C)c3)nn2-c2ccccc2)[C@H](c2ccc3c(c2)OCCO3)C1 (racemic) [Compound I-128],100 to 1000
